Our source for the EC50 and AC50 values is ChEMBL document CHEMBL1201862, “PubChem BioAssay data set” (2004).

Each structure is given as a SMILES string. Active and inactive are the calls of the source. For most assays here, no stated cut-off is given here; in the data, actives have a measured EC50 and inactives only a lower limit.

What is called EC50 is the midpoint of the concentration-response curve. For orientation: AC50 means the midpoint of the concentration-response curve, whichever way the signal moves.

In test [1] the test system is Streptococcus sp. 'group A'. The test is described as follows: Streptococcus pyogenes SK(-)GAS viability under kanamycin – luminescence, BacTiterGlo, confirmation, counter-screen for streptokinase expression inhibitor project, dose response (AID 1900). The test is classed as functional, organism-based. (In general: The purpose of a counterscreen is to sort out artefacts and off-target activity.)

Test [2] in a line: alpha-synuclein stem-loop luciferase translation blockers – H4 neuroglioma cells, luminescence, confirmation (AID 1988). The test is classed as functional, cell-based.
A short description of test [3]: Luminescence Cell-Based Dose Response HTS to Identify Inhibitors of 5'UTR Stem-Loop Driven Prion Protein mRNA Translation in H4 Neuroglioblastoma Cells. [Related pubchem assays: 1827 (Project Summary), 1813 (Primary HTS)]. Type of test: functional.
A short description of test [4]: Luminescence Cell-Based Dose Retest to Confirm Inhibitors of Cancer Stem Cells. [Related pubchem assays (depositor defined):AID2717, AID2721]. The test is classed as functional, Homo sapiens. The settings on record: Homo sapiens.
The nature of test [5]: luciferase reporter signal suppression in cells – H4 neuroglioma cells, luminescence, dose response (AID 1990). Type of test: functional, cell-based. (A reporter such as luciferase makes a cellular process visible.)
The test system of the next test is Streptococcus. Briefly: GAS UMAA2166 growth inhibition – luminescence, BacTiterGlo, counter-screen for streptokinase expression inhibitor project, dose response (AID 1915).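 Further: potency for reduction of bacterial viability or growth.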 Type of test: functional, organism-based.
In test [6] the target is T1, Zinc finger protein mex-5 (Caenorhabditis elegans, UniProt Q9XUB2).
T1 sequence (Q9XUB2 whole entry): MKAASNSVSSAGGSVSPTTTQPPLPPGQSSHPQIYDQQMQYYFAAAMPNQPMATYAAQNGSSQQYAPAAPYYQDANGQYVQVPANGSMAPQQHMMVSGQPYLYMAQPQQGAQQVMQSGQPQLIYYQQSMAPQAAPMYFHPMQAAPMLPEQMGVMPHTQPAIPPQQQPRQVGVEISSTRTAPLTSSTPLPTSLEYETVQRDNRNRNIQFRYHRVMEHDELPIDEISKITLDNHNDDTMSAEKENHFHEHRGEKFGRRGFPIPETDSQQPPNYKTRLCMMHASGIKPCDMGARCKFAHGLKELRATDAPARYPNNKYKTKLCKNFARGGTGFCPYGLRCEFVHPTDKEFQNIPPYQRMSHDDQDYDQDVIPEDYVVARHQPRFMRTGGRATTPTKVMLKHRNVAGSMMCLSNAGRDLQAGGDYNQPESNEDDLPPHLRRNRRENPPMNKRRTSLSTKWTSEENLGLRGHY
Briefly: potency of MEX-5 RNA-binding blockers – biochemical, C. elegans, fluorescence polarization, dose response (AID 1960). (In general: Polarisation of emitted light reports the rotation of a fluorescent probe.)

Test [7] addresses T2, RNA-binding protein pos-1 (Caenorhabditis elegans, UniProt G5EF15).
T2 sequence (G5EF15 whole entry): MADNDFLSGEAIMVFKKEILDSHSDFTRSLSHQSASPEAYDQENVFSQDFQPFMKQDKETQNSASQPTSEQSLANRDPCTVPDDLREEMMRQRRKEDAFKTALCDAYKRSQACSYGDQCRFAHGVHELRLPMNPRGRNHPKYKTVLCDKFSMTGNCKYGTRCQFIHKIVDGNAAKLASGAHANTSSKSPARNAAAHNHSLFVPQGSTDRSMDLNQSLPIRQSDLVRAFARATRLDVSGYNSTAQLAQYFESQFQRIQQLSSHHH
Briefly: disruptors of C. elegans POS-1 RNA interaction – biochemical, fluorescence polarization, dose response (AID 1964).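 Further: purified POS-1 fused to maltose binding protein made in E. coli; potency of compounds blocking POS-1 binding to fluorescent RNA.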

The target in the next test is T3, Streptokinase A (Streptococcus pyogenes serotype M1, UniProt P10520).
T3 sequence (P10520 whole entry): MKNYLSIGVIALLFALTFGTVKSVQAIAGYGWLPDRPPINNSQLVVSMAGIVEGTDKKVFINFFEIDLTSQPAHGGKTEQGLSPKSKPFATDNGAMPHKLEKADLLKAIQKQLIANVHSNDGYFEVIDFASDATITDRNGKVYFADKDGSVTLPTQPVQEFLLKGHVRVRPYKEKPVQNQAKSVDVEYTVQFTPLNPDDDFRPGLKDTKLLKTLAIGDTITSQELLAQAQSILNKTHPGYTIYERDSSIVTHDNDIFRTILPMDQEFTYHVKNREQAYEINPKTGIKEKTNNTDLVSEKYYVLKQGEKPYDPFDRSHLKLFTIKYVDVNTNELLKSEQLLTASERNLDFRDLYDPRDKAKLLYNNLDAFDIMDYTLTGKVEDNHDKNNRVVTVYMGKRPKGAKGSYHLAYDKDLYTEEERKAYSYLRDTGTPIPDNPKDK
Briefly: viability-normalized secreted streptokinase activity reduction – plasminogen activation absorbance, OD405, dose response (AID 1914).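 Further: secreted streptokinase activity via plasminogen activation per viability signal from cell pellet.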 Type of test: functional, Streptococcus pyogenes M1 GAS.

A short description of test [8]: NIH3T3 cell viability loss – ATP luminescence, mouse fibroblasts, counter-screen, dose response (AID 2010).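 Further: cells exposed to compound for about 90 hours before reading.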 The test is classed as functional, cell-based.
The nature of test [9]: Trypanosoma cruzi growth suppression in host cells – NIH3T3 host cells, beta-gal luminescence, confirmation (AID 2044).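 Further: intracellular parasites grown in NIH/3T3 mouse fibroblasts as host cells; luminescent beta-galactosidase reporter signal from transgenic T. cruzi replicating inside host cells; inhibitors lower the luminescence signal.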 The test is classed as functional, cell-based.
Test [10] has as its target T4, Heat shock factor protein 1 (Mus musculus, UniProt P38532).
T4 sequence (P38532 whole entry): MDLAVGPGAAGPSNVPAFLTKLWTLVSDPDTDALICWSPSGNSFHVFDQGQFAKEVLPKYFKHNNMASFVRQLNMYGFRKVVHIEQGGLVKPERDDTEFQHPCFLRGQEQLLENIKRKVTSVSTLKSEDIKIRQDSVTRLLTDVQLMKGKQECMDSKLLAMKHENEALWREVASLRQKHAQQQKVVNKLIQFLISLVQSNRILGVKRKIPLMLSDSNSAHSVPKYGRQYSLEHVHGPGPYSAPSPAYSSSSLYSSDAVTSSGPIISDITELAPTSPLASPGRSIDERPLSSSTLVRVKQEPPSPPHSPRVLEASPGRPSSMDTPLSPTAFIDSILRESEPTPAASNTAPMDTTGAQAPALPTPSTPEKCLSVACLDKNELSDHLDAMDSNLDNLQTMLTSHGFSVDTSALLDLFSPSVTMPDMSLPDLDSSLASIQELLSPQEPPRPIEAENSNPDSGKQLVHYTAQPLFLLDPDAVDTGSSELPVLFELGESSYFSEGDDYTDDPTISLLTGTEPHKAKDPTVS
Briefly: enhancement of HSF1-driven luciferase signal – cell-based, NIH3T3, luminescence, dose retest, confirmation (AID 435004).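 Further: stress induced by proteasome inhibitor MG132 added 30 min after compound; luciferase reporter driven by HSF1 response element in NIH3T3 cells; actives raise luminescence as potentiators of the MG132 stress response.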 Type of test: functional.
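Wherever AC50 is given: cells exposed to compound for roughly 70 hours or longer before luminescence read.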

As to `O=c1cc(N2CCCCC2)c(-c2ccccc2)nn1Cc1c(Cl)cccc1Cl`, the concentration for a half-maximal effect (EC50) is 5.65 µM (active) in [1]; > 120 µM (not active) in test [2]; > 120 µM (not active) in test [3]; 14.8 µM (active) in [5]; 5.18 µM (active) in the test with Streptococcus. Moreover, in test [4], the AC50 is 4.43 µM (active).
Take `COc1cccc(N/N=C2/C(=O)Nn3c2nc(C)cc3=O)c1`: the EC50 in [6] is < 0.06 µM (inconclusive); in test [7] it was > 300 µM (inconclusive).
On to `O=c1c([N+](=O)[O-])c[nH]c2nc(-c3ccncc3)nn12`, for which the EC50 in [2] was > 120 µM (not active); in test [3], 14.2 µM (active); in test [5], 15.8 µM (active).
Taken in the same sequence, the figures for `NC(=O)c1sc2nc3c(c(-c4ccc(Cl)cc4)c2c1N)CCCC3` were 12.3 µM (active), > 120 µM (not active) and 12.5 µM (active).
Turning to `N=C(N)c1ccc(OCCCCCOc2ccc(C(=N)N)cc2)cc1`, the EC50 was < 0.06 µM (active) in test [1]; 27.9 µM (active) at Streptokinase A; 9.9 µM (active) in test [2]; 10.9 µM (active) in test [3]; 11.5 µM (active) in test [5]; < 0.06 µM (active) with Streptococcus.
As for `Cc1ccc(N2CC(C(=O)Nc3nnc(SCC(=O)Nc4cc(C)on4)s3)CC2=O)cc1` (stereo not given), the EC50 in [2], in test [3] and in test [5] was > 120 µM (not active) in each case.
Turning to `N#Cc1c(NC(=O)/C=C/C(=O)O)sc2c1CCN(Cc1ccccc1)C2`, the values for the EC50 in test [6] and in test [7] were 25.5 µM (active) and 31 µM (active), respectively.
As for `CCN(CC)c1ccc(N/C=C2/C(=O)NC(=O)N(Cc3ccccc3)C2=O)cc1`, the EC50 in test [7] is on record as > 300 µM (not active).
As for `CC(C)CNC(=O)C1Nc2ccc(C(F)(F)F)cc2C2C=CCC12` (stereo not given), the EC50 in test [6] and in test [7] was > 300 µM (not active) in each case.
As for `Cc1cc(C)c2c(N)c(C(=O)c3ccc(Cl)cc3Cl)sc2n1`, the concentration for a half-maximal effect (EC50) is 13.8 µM (active) in [2], 19.4 µM (active) in test [3] and 12.2 µM (active) in [5].
As for `O=C(NCCc1c[nH]c2ccccc12)C1CCC(Cn2c(=S)[nH]c3ccccc3c2=O)CC1` (stereo not given), the EC50 in [8] was > 60 µM (not active); in test [9] it was 1.07 µM (active); in test [2], 32.1 µM (active); in [3] it was > 120 µM (not active); in [5] it was 16.9 µM (active). Further, the AC50 in test [4] was 0.582 µM (active).
As for `COC(=O)C1CCN(C(=O)COC(=O)Cc2c[nH]c3ccccc23)CC1`, the EC50 in [2], in test [3] and in [5] was > 120 µM (not active) each time.
In the case of `Cc1cccc(C)c1NC(=O)COC(=O)c1cccc2c1C(=O)c1ccccc1C2=O`, the EC50 was 30.8 µM (active) in [10], > 120 µM (not active) in test [2], 13.3 µM (active) in test [3] and 13.9 µM (active) in test [5].
Take `CCN(C(=O)c1cc(Cl)ccc1OC)C1CCCCC1`: the EC50 in [6] and in [7] was > 300 µM (not active) each time.
Regarding `COC(=O)c1cc(C(=O)OC)cc(-n2c(C)cc(C(=O)COC(=O)CNS(=O)(=O)c3ccc(C)cc3)c2C)c1`, the EC50 in [6] and in [7] was > 300 µM (not active) each time.
`C=CCn1c(Cc2nc3ccccc3[nH]2)n[nH]c1=S`: the concentration for a half-maximal effect (EC50) in [6] is 1.1 µM (active); in test [7], 80.2 µM (active).
On to `O=[N+]([O-])c1ccc(OCc2cn([C@@H](CO)c3ccccc3)nn2)c(Br)c1`, for which the EC50 in [2], in test [3] and in [5] was > 120 µM (not active) in each case.
Turning to `COc1cc(C2C(C#N)=C(N)OC3=C2C(=O)CCC3)cc2c1OCO2` (stereo not given), the EC50 in test [6] and in [7] was > 300 µM (not active) each time.
As for `CCOC(=O)C1Nc2ccc(C)cc2C2C=CCC12` (stereo not given), the EC50 in test [6] and in test [7] was > 300 µM (not active) in each case.
Consider `Clc1cccc(CN2CCN(Cc3nc(CCc4ccccc4)no3)CC2)c1`, for which the EC50 in [10] was > 260 µM (inactive); in test [2], > 120 µM (not active); in test [3], 32.3 µM (active); in [5], > 120 µM (not active).
For the compound `Cc1cn(-c2cc(C(=O)Nc3ccc(C)c(NC(=O)C(=O)c4c[nH]c5ccccc45)c3)cc(C(F)(F)F)c2)cn1`, the figures for the EC50 (in [1]; in [3]; in the test on Streptococcus) were 2.38 µM (active), 23 µM (active) and 3.39 µM (active), respectively. In test [4], the AC50 is 2.18 µM (active).
As for `CC(=O)C(=NNc1nc2c([nH]1)c(=O)n(C)c(=O)n2C)C(C)=O`, the 50% effective concentration (EC50) in test [6] is 12.7 µM (active); in [7], 73.9 µM (active).
Turning to `CC1CCc2nc(NCCO)nc(C(F)(F)F)c2C1` (stereo not given), the EC50 in [2] was > 120 µM (not active); in test [3], 26.1 µM (active); in test [5] it was 12.5 µM (active).
Turning to `Cc1ccc(S(=O)(=O)N(C)CC(=O)N/N=C/c2ccc(C)o2)cc1`, the EC50 in test [2], in [3] and in test [5] was > 120 µM (not active) each time.
As for `O=C(O)c1ccc2c(c1)C1C=CCC1C(c1ccncc1)N2` (stereo not given), the EC50 in test [6] was 24.3 µM (inconclusive); in test [7] it was 58.5 µM (active).
`Cc1cc(/C=C2\C(=O)NC(=O)N(c3cccc(F)c3)C2=O)c(C)n1-c1ccc(C(=O)O)c(Cl)c1`: the EC50 in test [6] and in test [7] was > 300 µM (not active) throughout.
With `O=S(=O)(Nc1ccc(O)c2ccccc12)c1ccc(Br)cc1`, the EC50 in test [6] was 22.9 µM (active); in test [7], 36 µM (active).
Turning to `O=C(CC12CC3CC(CC(C3)C1)C2)NC(=S)NCc1ccccc1`, the EC50 in [2] is 16.8 µM (active); in [3], 18.4 µM (active); in test [5], 13.1 µM (active).
On to `O=C(Cn1cnc2c(cnn2-c2ccc(Cl)cc2)c1=O)N1CCN(c2ccccc2)CC1`, for which the EC50 in [2] was 18.4 µM (active); in test [3], 12 µM (active); in test [5], 15.8 µM (active).
